Like-named read-outs stand apart in the source and are kept apart here.
Experiments:
[1] = Penicillin-G-amidase-mediated kinetic analysis of elimination at physiological pH (HPLC); assay type: physicochemical; details: pH 7.4, 37 °C
Protocol: Stocks of 2-phenylacetyl-para-aminobenzyl ketol were made up in DMF at a concentration of 10 mM. For a reaction, 17.5 µl of ketol stock was added to 17.5 µl of a 10 mM stock of internal standard in DMF and 310 µl of PBS at pH 7.4. To initiate a reaction, 5 µl of a suspension of penicillin G amidase (PenG, Sigma-Aldrich enzyme 76427, 5–10 U mg^−1) was added. In control samples 5 µl of PBS was added in place of the enzyme. Test and control samples were then incubated at 37 °C with shaking. At the recorded time points, 20 µl aliquots of the reactions were analysed by HPLC (254 nm, ThermoFisher U3000). HPLC column: Phenomenex Kinetex C18, 5 µm, 50 × 4.6 mm, 100 Å; flow, 1 ml min^−1. Gradient and solvent system for assay with 2-phenylacetyl-PAB-PhQ 21: A = H2O, B = acetonitrile, t = 0–1 min 0% B, t = 1–10 min 0–100% B, t = 10–11 min 0% B. Gradient and solvent system for assay with 2-phenylacetyl-PAB-BL 22 and 2-phenylacetyl-PAB-DN 23: A = H2O + 0.1% formic acid, B = acetonitrile + 0.1% formic acid, t = 0–1 min 0% B, t = 1–10 min 0–40% B, t = 10–16 min 40–50% B, t = 16.1 min 100% B, t = 16.1–18 min 100% B, t = 18–20 min 0% B. Peaks were identified by LC–MS analysis and comparison with pure compounds. Values described represent peak area (mAU × min) divided by peak area of internal standard. Recorded values are averages of three independent reactions and error bars display standard errors of the mean. Fitting was performed using GraphPad Prism 8 software. Rate and half-life measurements were calculated by consumption of intermediate para-aminobenzyl ketol and formation of product quinone.

[2] = 1H NMR kinetic analysis of elimination of PAB-PhQ in MeOD; assay type: physicochemical
Protocol: Kinetics of the release of PhQ 4 from PAB-PhQ 7 were monitored by ^1H NMR at 25 °C. Analysis was performed in MeOD due to poor solubility of the compound in H2O. To form the active eliminating species, Boc-PAB-PhQ 6 was dissolved in dichloromethane/trifluoroacetic acid 4:1 at 0 °C and stirred for 30 min, upon which the reaction appeared complete by TLC. Product 7 was dried in vacuo before being dissolved in MeOD. The basicity of the solution was altered by addition of triethylamine (drops). pH was estimated using pH paper. pH values are only indicative because analysis is performed in MeOD. Elimination rates were determined from the aromatic region. Kinetics were measured by monitoring the integral of one peak, normalized to the number of protons present (that is, the integral of 1H), divided by the total integral of the aromatic region (δ = 6.2–8.6 ppm, that is, the integral of 12 H). Analysis was performed using Mestrenova v.14.2.0 processing software and rate constants were calculated using GraphPad Prism v.8.0 software.

[3] = pH-rate aqueous kinetic analysis of fragmentation (HPLC); assay type: physicochemical; details: for kobs of elimination at pH 6: pH 6, 37 °C; for kobs of elimination at pH 6 / kobs of elimination at pH 3: citrate-phosphate buffer; for kobs of elimination at pH 3: pH 3, 37 °C
Protocol: pH-rate analysis was performed by adaption of the PenG assay. To obtain deprotected para-aminobenzyl ketol species, 2-phenylacetyl protected ketol was dissolved in PBS with 33% DMF to a concentration of 3.3 mM. Then 20 µl of a stock solution of PenG was added to 600 µl of this stock and incubated for 20 min at 37 °C, after which 20 µl of a 100 mM stock of internal standard in DMSO was added. Reactions were then set up immediately. For a reaction, 10 µl of the aminobenzyl ketol/standard stock was added to 190 µl of citrate–phosphate buffer at the specified pH to obtain an aqueous solution containing 1.8% DMSO. Test samples were incubated at 37 °C with shaking. At the recorded time points, 20 µl aliquots of the reactions were analysed by HPLC (254 nm, ThermoFisher U3000). HPLC conditions: column Phenomenex Kinetex C18 5 µm, 50 × 4.6 mm, 100 Å; solvent system A = H2O + 0.1% formic acid, B = acetonitrile + 0.1% formic acid; flow, 1 ml min^−1. Gradient for assay with PAB-PhQ 7: t = 0–1 min 0% B, t = 1–10 min 0–100% B, t = 10–11 min 0% B. Gradient for assay with PAB-BL 10 and PAB-DN 18: t = 0–1 min 0% B, t = 1–10 min 0–40% B, t = 10–16 min 40–50% B, t = 16.1 min 100% B, t = 16.1–18 min 100% B, t = 18–20 min 0% B. Values described represent peak area (mAU × min) divided by peak area of internal standard. Where necessary, peaks were deconvoluted using Origin fitting software. Recorded values are averages of three independent reactions and error bars display standard errors of the mean. Values were fitted using GraphPad Prism software. Rate and half-life measurements were calculated based on consumption of the para-aminobenzyl ketol species.

[4] = In vitro redox-cycling phenol red/horseradish peroxidase reporter assay; details: phenol red/HRP with DTT, up to 25 μM
Protocol: The in vitro redox-cycling capability of compounds was assessed by phenol red/horseradish peroxidase (HRP) assay by adaption of a previously described protocol. Briefly, stocks were prepared as follows: (1) DTT to a concentration of […] in PBS pH 7.4 buffer; (2) compound stocks in PBS pH 7.4 buffer to 3× the desired concentration by 1,000× dilution of DMSO stocks; (3) a stock of phenol red/HRP detection reagent containing 300 µg ml^−1 phenol red and 180 µg ml^−1 HRP enzyme in PBS pH 7.4 buffer; (4) a stock of 1 M NaOH in water; (5) a stock of 100 µM H2O2 in PBS prepared by addition of a 30% solution of H2O2 in water into 1,000 µl of PBS. Into each well of a 96-well clear flat-bottomed plate was then added 40 µl of compound stock in PBS followed by 40 µl of DTT stock, followed immediately by 40 µl of phenol red/HRP reagent. A positive control with 100 µM H2O2 added in place of compound was included. The plate was incubated in the dark at room temperature for 15 min. Following this, 20 µl of 1 M NaOH was added to each well to terminate the reaction. Absorbance was immediately measured at 610 nm (MiniMax i3x Imager, Molecular Devices). Absorbance of treated wells was normalized to control wells treated with PBS only (zero redox cycling).

[5] = molecular target: T1, recombinant human 5-LO (Homo sapiens, UniProt P09917); experiment: Cell-free activity assay for recombinant human 5-LO; assay type: biochemical
T1 construct: made in house; host or cells: Escherichia coli BL21
T1 sequence (P09917 1-674): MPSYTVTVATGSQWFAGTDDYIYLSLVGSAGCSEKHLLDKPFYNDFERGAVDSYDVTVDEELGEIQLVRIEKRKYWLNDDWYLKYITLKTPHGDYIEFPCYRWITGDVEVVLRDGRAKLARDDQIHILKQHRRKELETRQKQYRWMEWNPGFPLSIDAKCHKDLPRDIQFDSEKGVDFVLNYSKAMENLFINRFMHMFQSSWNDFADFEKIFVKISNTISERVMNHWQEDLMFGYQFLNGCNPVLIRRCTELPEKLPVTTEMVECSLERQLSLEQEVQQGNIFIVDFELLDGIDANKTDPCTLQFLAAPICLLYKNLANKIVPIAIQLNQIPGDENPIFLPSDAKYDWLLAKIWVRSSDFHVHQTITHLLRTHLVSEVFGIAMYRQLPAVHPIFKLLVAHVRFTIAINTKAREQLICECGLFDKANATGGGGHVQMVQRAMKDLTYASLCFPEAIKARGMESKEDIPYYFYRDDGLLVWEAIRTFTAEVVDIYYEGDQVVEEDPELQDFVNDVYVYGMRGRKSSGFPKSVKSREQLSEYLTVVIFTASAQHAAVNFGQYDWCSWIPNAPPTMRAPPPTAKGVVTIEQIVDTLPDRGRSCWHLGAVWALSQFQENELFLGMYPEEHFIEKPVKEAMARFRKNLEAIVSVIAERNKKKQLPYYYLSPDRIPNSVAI
Protocol: Escherichia coli (BL21) was transformed with pT3-5-LO plasmid, and recombinant 5-LO protein was expressed at 30 °C as described. Cells were lysed in 50 mM triethanolamine/HCl pH 8.0, 5 mM EDTA, 1 mM phenylmethanesulfonyl fluoride, soybean trypsin inhibitor (60 μg ml^−1) and lysozyme (1 mg ml^−1), homogenized by sonication (3 × 15 s) and centrifuged at 40,000g for 20 min at 4 °C. The 40,000g supernatant (S40) was applied to an ATP–agarose column to partially purify 5-LO as described. Aliquots of semipurified 5-LO (0.5 μg) were diluted with 1 ml ice-cold PBS containing 1 mM EDTA. Samples were preincubated with the test compound or vehicle (0.1% DMSO) with or without 1 mM DTT, as indicated. After 10 min at 4 °C, samples were prewarmed for 30 s at 37 °C, and 2 mM CaCl2 plus 20 μM arachidonic acid was added to start the formation of 5-LO products. After 10 min, the reaction was stopped by addition of 1 volume of ice-cold methanol, and the formed 5-LO products were analysed by reverse-phase HPLC as described. 5-LO products include the all-trans isomers of LTB4 (trLTB4 isomers) and 5(S)-hydroperoxy-6-trans-8,11,14-cis-eicosatetraenoic acid and its corresponding alcohol 5(S)-hydroxy-6-trans-8,11,14-cis-eicosatetraenoic acid.

[6] = tested on: ovine blood; experiment: Methaemoglobin analysis in ovine blood; set-up: species or system sheep; details: in vitro ovine blood model, 1 h incubation
Protocol: Defibrinated Oxoid sheep’s blood (ThermoScientific) was diluted to a 5% v/v suspension in PBS pH 7.4. In a 96-well microtitre plate, 150 µl of blood suspension was added to 50 µl of serially diluted compound in PBS containing a 4× stock of each compound of interest. Serial dilution of compounds from DMSO stocks into PBS was performed to achieve an in-plate DMSO concentration of 0.1%. PBS buffer alone was used as a negative control. The plate was incubated for the specified time at 37 °C. The plate was then centrifuged at 3,500 r.p.m. for 5 min. The supernatant was removed and cells lysed by resuspension in 100 µl of a solution of Triton-X-100 (1%) in PBS. Following this, 80 µl of lysed cell contents were transferred to a second microtitre plate for ultraviolet measurement. Ultraviolet absorbance was measured immediately at 630 nm (MiniMax i3x Imager, Molecular Devices). Methaemoglobin increase was determined by A630−A6300/A6300×100 , where A630 is the absorbance of the test well at 630 nm, and A6300 is the absorbance of the negative control at 630 nm.

[7] = tested on: AML cell line MOLM-13; experiment: Viability assay with small-molecule prodrugs, MOLM-13; assay type: cell-based; details: 5 µM, 24 h
Protocol: For assays assessing cytotoxicity of β-lapachone versus small-molecule prodrugs, antibodies and ADCs, suspension cells were plated into 24-well plates at a density of 2.5 × 10^5 cells ml^−1 in 240 µl. Stocks of ADC or antibody in PBS were normalized to 12.5 µM. Serial dilutions of compound were made up in PBS. Then, 60 µl of each stock of either PBS or compound in PBS was added to the cells to achieve the desired final concentration. After the specified incubation time, toxicity was assessed by counting of live cells using the trypan blue exclusion method with a Countess II Automated Cell Counter (ThermoFisher Scientific) according to the manufacturer’s instructions. Cell viability was determined by dividing the average live cell number of treated wells by the average live cell number for control wells treated with PBS only. IC50 values were calculated using GraphPad Prism software. Note: for the assay performed over 96 h, 5% human serum was added to media instead of 10% fetal bovine serum, to limit non-specific antibody internalisation. This had little effect on ADC toxicity.

[8] = 25 °C, moderately acidic methanolic solution

2-phenylacetyl-PAB-PhQ [Compound 21]
kobs, formation of PhQ 4 following addition of penicillin G amidase to 21 [1]: 1.15 ± 0.66 × 10^–5 s^–1 | stability without added enzyme ([1]; no penicillin G amidase): stable

Nc1ccc(CC2(O)C(=O)c3ccccc3-c3ccccc32)cc1 (stereo not drawn) [Compound 7, para-aminobenzyl phenanthrene-ketol]
kobs, rate of consumption of 7 [2, 8]: 6.18 ± 0.12 × 10^–5 s^–1 | kobs, rate of formation of product 4 from 7 [2, 8]: 6.55 ± 0.22 × 10^–5 s^–1 | time to complete release of 4 from 7 [2, 8]: ≤ 20 h | completeness of release of 4 from 7 ([2]; basic conditions): not complete after 40 h | kobs, appearance of 4 from 7 ([2]; basic conditions, MeOD with triethylamine): 1.16 ± 0.18 × 10^–6 s^–1 | kobs, elimination of 7 ([1]; 7 generated enzymatically from 21): 9.72 ± 2.88 × 10^–6 s^–1 | pH at which elimination rate peaks ([3]; 37 °C): 5–6 | kobs of elimination at pH 6 [3]: 1.7 ± 0.3 × 10^–5 s^–1

CC1(C)CCC2=C(O1)c1ccccc1C(O)(Cc1ccc(N)cc1)C2=O (stereo not drawn) [Compound 10]
pH at which elimination rate peaks ([3]; 37 °C): 3 | kobs of elimination at pH 3 [3]: 1.1 ± 0.1 × 10^–5 s^–1 | kobs of elimination at pH 6 [3]: 2.1 ± 0.8 × 10^–7 s^–1 | elimination resulting in formation of 1 ([3]; pH ≥6, within 72 h, 37 °C): Negligible

CC1OC2=C(C(=O)C(O)(Cc3ccc(N)cc3)c3ccccc32)C1(C)C (stereo not drawn) [Compound 18]
kobs of elimination at pH 3 [3]: 9.1 ± 0.2 × 10^–6 s^–1 | kobs of elimination at pH 6 [3]: 7.4 ± 1.1 × 10^–7 s^–1

CC1(C)CCc2c3c(c4ccccc4c2O1)OCCO3 [Compound 25]
in vitro redox activity [4]: no measurable redox activity | IC50 ([5]; with DTT (1 mM), read-out: IC50, 5-LO inhibition with DTT): 11.5 ± 2.2 µM | IC50 ([5]; without DTT, read-out: IC50, 5-LO inhibition without DTT): 11.3 ± 1.1 µM | methaemoglobin formation [6]: did not occur

CC(=O)Oc1c2c(c3ccccc3c1OC(C)=O)OC(C)(C)CC2 [Compound 29]
toxicity to MOLM-13 at 5 µM [7]: complete cell death
